Assay results from PubChem BioAssay (NCI).
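Growth conditions: 96-well plates. Treatment: test compound, 48 hours, 5 concentrations. Analysis: linear interpolation between bracketing concentrations; unreached endpoints set to highest concentration. GI50 marks 50% less growth. Definition used: TGI = concentration required for complete inhibition of growth.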

How the values were obtained:
Assay in all cases: DTP human tumour cell line panel, 48 h
SF-268 CNS = system: SF-268 CNS
MCF7 breast = system: MCF7 breast
SNB-75 CNS = system: SNB-75 CNS
HCT-15 colon = system: HCT-15 colon
SF-295 CNS = system: SF-295 CNS
EKVX NSCLC = system: EKVX NSCLC
CCRF-CEM leukemia = system: CCRF-CEM leukemia
HT29 colon = system: HT29 colon
OVCAR-8 ovarian = system: OVCAR-8 ovarian
IGROV1 ovarian = system: IGROV1 ovarian
OVCAR-5 ovarian = system: OVCAR-5 ovarian
OVCAR-4 ovarian = system: OVCAR-4 ovarian
SF-539 CNS = system: SF-539 CNS
MALME-3M melanoma = system: MALME-3M melanoma
MDA-MB-435 = system: MDA-MB-435
MDA-MB-231 breast = system: MDA-MB-231 breast
NCI-H226 lung = system: NCI-H226 lung
HS 578T breast = system: HS 578T breast
CAKI-1 renal = system: CAKI-1 renal
RXF 393 renal = system: RXF 393 renal
BT-549 breast = system: BT-549 breast
SR leukemia = system: SR leukemia
RPMI-8226 leukemia = system: RPMI-8226 leukemia
UO-31 renal = system: UO-31 renal
SK-MEL-28 melanoma = system: SK-MEL-28 melanoma
COLO 205 colon = system: COLO 205 colon
KM12 colon = system: KM12 colon
HOP-92 NSCLC = system: HOP-92 NSCLC
NCI-H23 lung = system: NCI-H23 lung
NCI/ADR-RES ovarian = system: NCI/ADR-RES ovarian
DU-145 prostate = system: DU-145 prostate
NCI-H460 lung = system: NCI-H460 lung
MOLT-4 leukemia = system: MOLT-4 leukemia
SN12C renal = system: SN12C renal
OVCAR-3 ovarian = system: OVCAR-3 ovarian
HCT-116 colon = system: HCT-116 colon
SK-MEL-5 melanoma = system: SK-MEL-5 melanoma
ACHN renal = system: ACHN renal
A549 NSCLC = system: A549 NSCLC
TK-10 renal = system: TK-10 renal
HOP-62 NSCLC = system: HOP-62 NSCLC
NCI-H522 lung = system: NCI-H522 lung
SW-620 colon = system: SW-620 colon
T-47D breast = system: T-47D breast
LOX IMVI melanoma = system: LOX IMVI melanoma
786-0 renal = system: 786-0 renal
K-562 leukemia = system: K-562 leukemia
M14 melanoma = system: M14 melanoma
PC-3 prostate = system: PC-3 prostate
U251 CNS = system: U251 CNS
SK-OV-3 ovarian = system: SK-OV-3 ovarian
UACC-257 melanoma = system: UACC-257 melanoma
SNB-19 CNS = system: SNB-19 CNS
SK-MEL-2 melanoma = system: SK-MEL-2 melanoma
UACC-62 melanoma = system: UACC-62 melanoma
HL-60(TB) leukemia = system: HL-60(TB) leukemia
A498 renal = system: A498 renal
HCC-2998 colon = system: HCC-2998 colon

## Cc1cccc(Br)[n+]1[O-]
SF-268 CNS
  TGI: > 100000 nM
MCF7 breast
  TGI: > 100000 nM
SNB-75 CNS
  TGI: > 100000 nM
HCT-15 colon
  TGI: > 100000 nM
SF-295 CNS
  TGI: > 100000 nM
EKVX NSCLC
  TGI: > 100000 nM
CCRF-CEM leukemia
  TGI: > 100000 nM
HT29 colon
  TGI: > 100000 nM
OVCAR-8 ovarian
  TGI: > 100000 nM
IGROV1 ovarian
  TGI: > 100000 nM
OVCAR-5 ovarian
  TGI: > 100000 nM
OVCAR-4 ovarian
  TGI: > 100000 nM
SF-539 CNS
  TGI: > 100000 nM
MALME-3M melanoma
  TGI: > 100000 nM
MDA-MB-435
  TGI: > 100000 nM
MDA-MB-231 breast
  TGI: > 100000 nM
NCI-H226 lung
  TGI: > 100000 nM
HS 578T breast
  TGI: > 100000 nM
CAKI-1 renal
  TGI: > 100000 nM
RXF 393 renal
  TGI: > 100000 nM
BT-549 breast
  TGI: > 100000 nM
SR leukemia
  TGI: > 100000 nM
RPMI-8226 leukemia
  TGI: > 100000 nM
UO-31 renal
  TGI: > 100000 nM
SK-MEL-28 melanoma
  TGI: > 100000 nM
COLO 205 colon
  TGI: > 100000 nM
KM12 colon
  TGI: > 100000 nM
HOP-92 NSCLC
  TGI: > 100000 nM
NCI-H23 lung
  TGI: > 100000 nM
NCI/ADR-RES ovarian
  TGI: > 100000 nM
DU-145 prostate
  TGI: > 100000 nM
NCI-H460 lung
  TGI: > 100000 nM
MOLT-4 leukemia
  TGI: > 100000 nM
SN12C renal
  TGI: > 100000 nM
OVCAR-3 ovarian
  TGI: > 100000 nM
HCT-116 colon
  TGI: > 100000 nM
SK-MEL-5 melanoma
  TGI: > 100000 nM
ACHN renal
  TGI: > 100000 nM
A549 NSCLC
  TGI: > 100000 nM
TK-10 renal
  TGI: > 100000 nM
HOP-62 NSCLC
  TGI: > 100000 nM
NCI-H522 lung
  TGI: > 100000 nM
SW-620 colon
  TGI: > 100000 nM
T-47D breast
  TGI: > 100000 nM
LOX IMVI melanoma
  TGI: > 100000 nM
786-0 renal
  TGI: > 100000 nM
K-562 leukemia
  TGI: > 100000 nM
M14 melanoma
  TGI: > 100000 nM
PC-3 prostate
  TGI: > 100000 nM
U251 CNS
  TGI: > 100000 nM
SK-OV-3 ovarian
  TGI: > 100000 nM
UACC-257 melanoma
  TGI: > 100000 nM
SNB-19 CNS
  TGI: > 100000 nM
SK-MEL-2 melanoma
  TGI: > 100000 nM
UACC-62 melanoma
  TGI: > 100000 nM

## COc1cc(C(=O)O[C@H](C(=O)NCCCNC(=O)[C@@H](OC(=O)c2cc(OC)cc3c(C)cccc23)[C@]2(C)CO2)[C@]2(C)CO2)c2cccc(C)c2c1
SF-268 CNS
  GI50: < 10 nM
MCF7 breast
  GI50: < 10 nM
  TGI: 219 nM
SNB-75 CNS
  TGI: 381 nM
HCT-15 colon
  GI50: 44.4 nM
  TGI: 723 nM
SF-295 CNS
  TGI: 562 nM
EKVX NSCLC
  GI50: 88.5 nM
  TGI: 1610 nM
CCRF-CEM leukemia
  GI50: < 10 nM
HT29 colon
  GI50: < 12.1 nM
OVCAR-5 ovarian
  GI50: 168 nM
  TGI: 1450 nM
OVCAR-4 ovarian
  GI50: < 10 nM
  TGI: 231 nM
SF-539 CNS
  GI50: < 26.8 nM
  TGI: 138 nM
MDA-MB-435
  TGI: 503 nM
MDA-MB-231 breast
  GI50: 153 nM
  TGI: 579 nM
NCI-H226 lung
  GI50: 151 nM
  TGI: 762 nM
HS 578T breast
  GI50: 206 nM
CAKI-1 renal
  GI50: 33 nM
  TGI: 205 nM
RXF 393 renal
  GI50: < 10 nM
  TGI: < 10 nM
BT-549 breast
  GI50: 197 nM
  TGI: 2290 nM
RPMI-8226 leukemia
  GI50: 322 nM
  TGI: 2260 nM
UO-31 renal
  GI50: 705 nM
  TGI: > 100000 nM
SK-MEL-28 melanoma
  GI50: < 37.5 nM
  TGI: 142 nM
COLO 205 colon
  GI50: 59.3 nM
  TGI: 511 nM
KM12 colon
  GI50: 101 nM
  TGI: 607 nM
HOP-92 NSCLC
  GI50: < 11.3 nM
  TGI: 150 nM
NCI-H23 lung
  GI50: < 10 nM
  TGI: 22.4 nM
NCI/ADR-RES ovarian
  GI50: 154 nM
  TGI: 970 nM
DU-145 prostate
  GI50: < 10 nM
  TGI: < 10 nM
NCI-H460 lung
  GI50: < 19 nM
  TGI: 902 nM
MOLT-4 leukemia
  GI50: < 10 nM
  TGI: < 10 nM
HL-60(TB) leukemia
  GI50: < 10 nM
  TGI: < 10 nM
SN12C renal
  TGI: 486 nM
A498 renal
  TGI: 1830 nM
SK-MEL-5 melanoma
  GI50: < 15.4 nM
  TGI: 178 nM
A549 NSCLC
  GI50: 128 nM
  TGI: 718 nM
TK-10 renal
  GI50: 27.5 nM
  TGI: 280 nM
NCI-H522 lung
  GI50: < 10 nM
  TGI: < 10 nM
SW-620 colon
  GI50: < 10 nM
T-47D breast
  GI50: 59.5 nM
  TGI: 839 nM
LOX IMVI melanoma
  GI50: < 10 nM
  TGI: < 10 nM
HCC-2998 colon
  GI50: < 19.8 nM
  TGI: 224 nM
K-562 leukemia
  GI50: < 35.9 nM
  TGI: 923 nM
M14 melanoma
  GI50: < 48.6 nM
PC-3 prostate
  GI50: < 36.7 nM
  TGI: 477 nM
U251 CNS
  GI50: < 10 nM
  TGI: 20.6 nM
SK-OV-3 ovarian
  GI50: 501 nM
  TGI: 1980 nM
UACC-257 melanoma
  GI50: 270 nM
  TGI: 872 nM
SNB-19 CNS
  TGI: 701 nM
SK-MEL-2 melanoma
  GI50: 137 nM
  TGI: 34600 nM
UACC-62 melanoma
  GI50: 962 nM
  TGI: 2140 nM
